The target in the assay is T1, human PD-1 / PD-L1-Ig binding on Jurkat cell line over-expressing human PD-1 (Jurkat-PD-1) (Homo sapiens, UniProt Q15116).
T1 construct: expressed in transfected cells; host or cells: Jurkat
Put plainly: Jurkat-PD-1 Cell Binding High-Content Screening Assay (CBA). The following applies: Jurkat-PD-1 cells, PE-labeled PD-L1-Ig 20 nM final; read-out: Jurkat HPD1_PDL1 IC50. The format is cell-based. The procedure, abridged:
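Compounds were preincubated with Jurkat-hPD-1 cells in DMEM plus 10% fetal calf serum for 2 h at 37° C. Phycoerythrin-labeled PD-L1-Ig (20 nM final) was then added for 1 hour. Cells were fixed in 4% paraformaldehyde with Hoechst 33342, and bound fluorescence was quantified by high-content imaging.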

SMILES strings stand for the structures. Where a SMILES comes first, the peptide text is derived from it. Bridges are numbered along the chain shown (N, C = ends). [ ]: non-standard residue; d: D form. The star is where a group is joined. Phe(3,4-Cl2) = N[C@@H](Cc1ccc(Cl)c(Cl)c1)C(=O)O; Phe(4-COOH) = N[C@@H](Cc1ccc(C(=O)O)cc1)C(=O)O; Bip = N[C@@H](Cc1ccc(-c2ccccc2)cc1)C(=O)O; Phe(3-Me) = Cc1cccc(C[C@H](N)C(=O)O)c1; Val(3-OH) = CC(C)(O)[C@H](N)C(=O)O; 4Pal = N[C@@H](Cc1ccncc1)C(=O)O; 2Thi = N[C@@H](Cc1cccs1)C(=O)O; Cha = N[C@@H](CC1CCCCC1)C(=O)O; Cit = NC(=O)NCCC[C@H](N)C(=O)O; hSer = N[C@@H](CCO)C(=O)O; Carboxymethyl = O=C(O)C*; Orn = NCCC[C@H](N)C(=O)O; Dab = NCC[C@H](N)C(=O)O; Dap = NC[C@H](N)C(=O)O

T1 sequence (Q15116 25-288): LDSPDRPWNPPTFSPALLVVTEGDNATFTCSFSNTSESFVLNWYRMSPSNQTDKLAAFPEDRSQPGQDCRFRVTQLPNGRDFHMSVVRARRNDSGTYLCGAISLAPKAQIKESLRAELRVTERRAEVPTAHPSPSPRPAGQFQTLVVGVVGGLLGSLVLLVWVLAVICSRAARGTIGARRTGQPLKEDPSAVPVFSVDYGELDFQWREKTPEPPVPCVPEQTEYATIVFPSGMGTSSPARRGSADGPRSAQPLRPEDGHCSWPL

In the case of `CC(C)C[C@H]1NC(=O)[C@H](CCCN)NC(=O)[C@H](CCC(=O)O)NC(=O)[C@H](Cc2ccc(-c3ccccc3)cc2)NC(=O)[C@H](C(C)C)NC(=O)[C@H](Cc2cccc(C(F)(F)F)c2)NC(=O)[C@H](CC(=O)O)NC(=O)[C@H](Cc2ccc(O)cc2)NC(=O)[C@H](Cc2ccncc2)NC(=O)CSC[C@@H](C(=O)N[C@@H](C)C(N)=O)NC(=O)[C@H]([C@@H](C)O)NC(=O)[C@H](C(C)C)NC(=O)[C@H](CC2CCCCC2)NC(=O)[C@H](CCN)NC1=O` [Compound 1464], the 50% inhibitory concentration (IC50) came to 25.8 nM.
For `CC(C)C[C@@H]1NC(=O)[C@H](CCN)NC(=O)[C@@H](CC(C)C)NC(=O)[C@H](CCN)NC(=O)[C@H](CCC(=O)O)NC(=O)[C@H](Cc2ccc(-c3ccccc3)cc2)NC(=O)[C@H](C(C)C)NC(=O)[C@H](Cc2c[nH]c3ccccc23)NC(=O)[C@H](CC(=O)O)NC(=O)[C@H](Cc2ccc(OCC(=O)O)cc2)NC(=O)[C@H](Cc2ccc(OCC(=O)O)cc2)NC(=O)CSC[C@@H](C(=O)N[C@@H](C)C(N)=O)NC(=O)[C@H](CO)NC(=O)[C@H](C(C)C)NC1=O` [Compound 1268] ({CH2CO}-Y(Carboxymethyl)Y(Carboxymethyl)DWV[Bip]E[Dab][dL][Dab]LVSCA-NH2; thioether N-14) the value was 24.6 nM; for `Cc1cccc(C[C@@H]2NC(=O)[C@H](CC(=O)O)NC(=O)[C@H](Cc3ccc(OCC(=O)O)cc3)NC(=O)[C@H](Cc3ccc(OCC(=O)O)cc3)NC(=O)CSC[C@@H](C(N)=O)NC(=O)[C@H](CO)NC(=O)[C@H](C(C)C)NC(=O)[C@H](CC(C)C)NC(=O)[C@H](CCN)NC(=O)[C@@H](CC(C)C)NC(=O)[C@H](CCCN)NC(=O)[C@H](CCCNC(N)=O)NC(=O)[C@H](Cc3ccc(-c4ccccc4)cc3)NC(=O)[C@H](CC(C)C)NC2=O)c1` [Compound 1656] ({CH2CO}-Y(Carboxymethyl)Y(Carboxymethyl)D[Phe(3-Me)]L[Bip][Cit][Orn][dL][Dab]LVSC-NH2; thioether N-14), 36.4 nM; for `CC(C)C[C@H]1NC(=O)[C@H](CCCN)NC(=O)[C@H](CN)NC(=O)[C@H](Cc2ccc(-c3ccccc3)cc2)NC(=O)[C@H](C(C)C)NC(=O)[C@H](Cc2c[nH]c3ccccc23)NC(=O)[C@H](CC(=O)O)NC(=O)[C@H](Cc2ccc(OCC(=O)O)cc2)NC(=O)[C@H](CC#N)NC(=O)CSC[C@@H](C(=O)N[C@@H](C)C(N)=O)NC(=O)[C@H](C(C)O)NC(=O)[C@H](C(C)C)NC(=O)[C@H](CC2CCCCC2)NC(=O)[C@H](CC(N)=O)NC1=O` (some centres unmarked) [Compound 2539], 103 nM.
Regarding `COCC[C@@H]1NC(=O)CSC[C@@H](C(=O)N[C@@H](CCN)C(N)=O)NC(=O)[C@H](CO)NC(=O)[C@H](C(C)(C)O)NC(=O)[C@H](CC2CCCCC2)NC(=O)[C@H](CCN)NC(=O)[C@@H](CC(C)C)NC(=O)[C@H](CCCN)NC(=O)[C@H](Cc2ccc(OCC(=O)O)cc2)NC(=O)[C@H](Cc2ccc(-c3ccccc3)cc2)NC(=O)[C@H](Cc2ccc(OCC(=O)O)cc2)NC(=O)[C@H](Cc2cccc(C)c2)NC(=O)[C@H](CC(=O)O)NC(=O)[C@H](Cc2ccc(C(=O)O)cc2)NC1=O` [Compound 2079] ({CH2CO}-[hSer](Me)[Phe(4-COOH)]D[Phe(3-Me)]Y(Carboxymethyl)[Bip]Y(Carboxymethyl)[Orn][dL][Dab][Cha][Val(3-OH)]SC[Dab]-NH2; thioether N-14), the half-maximal inhibitory concentration (IC50) stood at 6.3 nM.
For `CC(C)C[C@H]1NC(=O)[C@H](CCCN)NC(=O)[C@H](CCC(=O)O)NC(=O)[C@H](Cc2ccc(-c3ccccc3)cc2)NC(=O)[C@H](C(C)C)NC(=O)[C@H](Cc2c[nH]c3ccccc23)NC(=O)[C@H](CC(=O)O)NC(=O)[C@H](Cc2ccc(OCC(=O)O)cc2)NC(=O)[C@H](CN)NC(=O)CSC[C@@H](C(=O)N[C@@H](C)C(N)=O)NC(=O)[C@H]([C@@H](C)O)NC(=O)[C@H](C(C)C)NC(=O)[C@H](Cc2ccc(Cl)c(Cl)c2)NC(=O)[C@H](CCN)NC1=O` [Compound 1481] ({CH2CO}-[Dap]Y(Carboxymethyl)DWV[Bip]E[Orn][dL][Dab][Phe(3,4-Cl2)]VTCA-NH2; thioether N-14) the value was 67.2 nM.
With `CC(C)C[C@H]1NC(=O)[C@H](CCCN)NC(=O)[C@H](CCC(=O)O)NC(=O)[C@H](Cc2ccc(-c3ccccc3)cc2)NC(=O)[C@H](C(C)C)NC(=O)[C@H](Cc2cccs2)NC(=O)[C@H](CC(=O)O)NC(=O)[C@H](Cc2ccncc2)NC(=O)[C@H](Cc2ccncc2)NC(=O)CSC[C@@H](C(=O)N[C@@H](C)C(N)=O)NC(=O)[C@H]([C@@H](C)O)NC(=O)[C@H](C(C)C)NC(=O)[C@H](CC2CCCCC2)NC(=O)[C@H](CCN)NC1=O` [Compound 2203] ({CH2CO}-[4Pal][4Pal]D[2Thi]V[Bip]E[Orn][dL][Dab][Cha]VTCA-NH2; thioether N-14) the figure was 18.2 nM.
In the case of `Cc1cccc(C[C@@H]2NC(=O)[C@H](CC(=O)O)NC(=O)[C@H](Cc3ccc(C(=O)O)cc3)NC(=O)[C@H](Cc3ccc(OCC(=O)O)cc3)NC(=O)CSC[C@@H](C(=O)N[C@H](CCC(=O)O)C(=O)O)NC(=O)[C@H](CCCN)NC(=O)[C@H](C(C)C)NC(=O)[C@H](CC3CCCCC3)NC(=O)[C@H](CCN)NC(=O)[C@@H](CC(C)C)NC(=O)[C@H](CCN)NC(=O)[C@H](C(C)C)NC(=O)[C@H](Cc3ccc(-c4ccccc4)cc3)NC(=O)[C@H](C(C)C)NC2=O)c1` [Compound 2590] ({CH2CO}-Y(Carboxymethyl)[Phe(4-COOH)]D[Phe(3-Me)]V[Bip]V[Dab][dL][Dab][Cha]V[Orn]C[dE]-OH; thioether N-14), the IC50 worked out at 30.2 nM.
In the case of `CC(C)C[C@H]1NC(=O)[C@H](CCCN)NC(=O)[C@H](C(C)C)NC(=O)[C@H](Cc2ccc(-c3ccccc3)cc2)NC(=O)[C@H](C(C)C)NC(=O)[C@H](Cc2cccc(C(F)(F)F)c2)NC(=O)[C@H](CC(=O)O)NC(=O)[C@H](Cc2ccc(OCC(=O)O)cc2)NC(=O)[C@H](Cc2ccc(OCC(=O)O)cc2)NC(=O)CSC[C@@H](C(=O)N[C@@H](C)C(N)=O)NC(=O)[C@H]([C@@H](C)O)NC(=O)[C@H](C(C)C)NC(=O)[C@H](CC2CCCCC2)NC(=O)[C@H](CCN)NC1=O` [Compound 1574], the IC50 is 30.4 nM.
`CC(C)C[C@H]1NC(=O)[C@H](CCCN)NC(=O)[C@H](CCC(=O)O)NC(=O)[C@H](Cc2ccc(-c3ccccc3)cc2)NC(=O)[C@H](C(C)C)NC(=O)[C@H](Cc2cccs2)NC(=O)[C@H](CC(=O)O)NC(=O)[C@H](Cc2ccncc2)NC(=O)[C@H](CN)NC(=O)CSC[C@@H](C(=O)N[C@@H](C)C(N)=O)NC(=O)[C@H]([C@@H](C)O)NC(=O)[C@H](C(C)C)NC(=O)[C@H](CC2CCCCC2)NC(=O)[C@H](CCN)NC1=O` [Compound 2201] ({CH2CO}-[Dap][4Pal]D[2Thi]V[Bip]E[Orn][dL][Dab][Cha]VTCA-NH2; thioether N-14): the IC50 stood at 22.5 nM.
For `CC(C)C[C@H]1NC(=O)[C@H](CCCN)NC(=O)[C@H](C(C)C)NC(=O)[C@H](Cc2ccc(-c3ccccc3)cc2)NC(=O)[C@H](C(C)C)NC(=O)[C@H](Cc2cccc(Cl)c2)NC(=O)[C@H](CC(=O)O)NC(=O)[C@H](Cc2ccc(OCC(=O)O)cc2)NC(=O)[C@H](Cc2ccncc2)NC(=O)CSC[C@@H](C(=O)N[C@@H](C)C(N)=O)NC(=O)[C@H]([C@@H](C)O)NC(=O)[C@H](C(C)C)NC(=O)[C@H](CC2CCCCC2)NC(=O)[C@H](CCN)NC1=O` [Compound 1575] the value was 16.6 nM.

The record behind these values is patent publication US20250163104A1, “MACROCYCLIC IMMUNOMODULATORS” (priority 2021, published 2025).
